Results on one molecule are retold here after patent publication US6465519B2, “Uses of modafinil and its D/L enantiomers” (priority 1999, dated 2002).

For series [1] the following is noted: cited from earlier work.
For the next series, the system named is SD rats of both sexes. The series is described as follows: Effect of Modafinil on sexual ability in rats. As to conditions: 200 mg/kg/day for 15 days. It counts as in vivo. As to the method:
EXPERIMENTAL ANIMALS: SD rats of both sexes were used and feeding methods of the drug were the same as in the Example 1.
EXPERIMENTAL PROTOCOL: 15 males and 15 females for control fed with 3% starch paste for 15 days while 15 males and 15 females were is treated with 200 mg/kg/day of Modafinil(prepared according to Example 1 in the U.S. Pat. No. 4,177,290) for 15 days. On day 16 evening, each special cage was distributed by chance with 1 male and 1 female rat couple. For the first 2 hours of coinhabitation, the numbers of sexual intercourse movement of male along with acceptance of female were counted.

The subject of series [2] is spermatozoa counts in rats. Kind of series: Effect of Modafinil on spermatogenesis in rats. The format is in vivo, SD male rats. As to conditions: for mean number of spermatozoa per gram weight of sperm ± S.D.: SD male rats, sperm from epididymis tail. As to the method:
EXPERIMENTAL ANIMALS: SD male rats, 2 months old, weighing 210 to 260 g, were used for this experiment. All the animals were fed in the laboratory for a week before starting the experiment for accommodative purpose. The animals were distributed randomly into 5 experimental groups, 10 in each group. The room temperature was kept at 20 to 25° C. 4 groups of rats were administrated with Modafinil and 1 group for control.
METHODS AND PROTOCOLS: In treated groups, various doses of Modafinil were given by gavage as 200, 400, 600 and 800 mg/kg/day in rats. Modafinil(prepared according to Example 1 in the U.S. Pat. No. 4,177,290) was mixed with 3% starch paste, 2 ml for each rat per day, gavage feeding for successive 30 days. The controlled animals received the 3% starch paste without drug, with same amount for 30 successive days. The morphology, motility and number of the spermatozoa of the animals in each group were observed and counted. On days 31, all animals were killed. Spermatozoa in the sperm taken from epididymis tail were counted; the testes and prostates were taken out. Histological sections were made and examined under microscope.

In a further series the test system is Young female SD rats. Kind of series: Effect of Modafinil on uterus weight in female rats. It counts as in vivo. The following applies: 200 mg/kg/day for 15 days. As to the method: EXPERIMENTAL ANIMAL: Young female SD rats of 25 days old were used. Food and drug administration was the sane as used in the Example 1.
EXPERIMENTAL PROTOCOL: 15 female rats for control were fed 3% starch paste 2 ml/day for 15 successive days. 15 female rats treated with Modafinil(prepared according to Example 1 in the U.S. Pat. No. 4,177,290) mixed with 3% starch paste for 200 mg/kg/day in 2 ml of starch paste a day. Animals were sacrificed on day 16 and the uterei were taken out. Every fresh uterus was weighed.

Regarding `NC(=O)C[S+]([O-])C(c1ccccc1)c1ccccc1` (stereo not drawn) [Modafinil, 2-[(Diphenylmethyl)sulfinyl]-N-Acetamide], the solubility in acetone result in series [1] (acetone) is reported as “sparingly or slightly soluble”. The solubility in cyclohexane result in series [1] (cyclohexane) was “insoluble”. Moreover, the solubility in methanol result in series [1] (methanol) was “sparingly or slightly soluble”. For the same molecule, the solubility in water entry in series [1] (water) is on record as “insoluble”. Besides, in the series on SD rats of both sexes (males and females treated, first 2 hours of coinhabitation on day 16), the “number of sexual intercourse (Mean±S.D.)” value is given as 5.0±1.2 times/2 hours/couple. Besides, in the series on SD rats of both sexes (rats), the “mean number of sexual intercourse relative to control” value is on record as 161 % of the control. Moreover, the “mean number of spermatozoa per gram weight of sperm ± S.D.” value in series [2] (200 mg/kg/day by gavage for 30 days) is reported as 819.8 ± 295.6 per gram weight of sperm; in series [2] (400 mg/kg/day by gavage for 30 days), 1753.8 ± 540.6 per gram weight of sperm; in series [2] (600 mg/kg/day by gavage for 30 days) it was 1706.0 ± 379.9 per gram weight of sperm; in series [2] (800 mg/kg/day by gavage for 30 days), 1656.0 ± 165.8 per gram weight of sperm. For the same molecule, in series [2] (Modafinil treated groups versus controls, testes sections), the “histological examination: stages of normal spermatogenesis in the seminiferous tubules” value was “more distinct and regular than those in the controls”. In addition, the “histological examination: cell degeneration during the course of spermatogenesis” value in series [2] (Modafinil treated groups, testes sections) is “No cell degeneration was found”. Further, the “number of spermatozoa and motility” value in series [2] (all Modafinil treated groups (200-800 mg/kg/day, 30 days), rats) is reported as “remarkably increased with active motility”. The “mean uterus weight relative to controls” value in the series on Young female SD rats is 158 % of that in Controls. The “mean uterus weight (Mean+S.D.)” value in the series on Young female SD rats (fresh uterus on day 16) is 0.418 ± 0.082 g.
